# Results taken from patent EP0429187A1, “Enhanced bioavailability adsorbates” (ELAN C[…].L.C., priority 1989, dated 1991).
# How the values were obtained:
# [1] = Mean urinary recoveries for DHEA base in the comparison study; type: in vivo; conditions: human volunteers
# [2] = Comparison of enhanced bioavailability DHEA adsorbate with micronised DHEA: plasma levels (AUC) of DHEA base and sulphate; type: in vivo; conditions: reference AUC arbitrarily denoted as 100%, 500 mg oral every 8 hours over 24 hours, 9 healthy male human volunteers, read-out: F = absolute bioavailability (DHEA Base)
# Procedure: In this study an enhanced bioavailability DHEA adsorbate powder of the type prepared in Example 2 was compared with standard micronised DHEA in capsule form. For the formulation in accordance with the invention (hereinafter referred to as 'test') the dose administered was 500 mg of DHEA as adsorbate in powder-sachet form. The standard micronised DHEA (hereinafter referred to as 'reference') was administered as 2 x 250 mg capsules. […] In the study, the test substance was compared in a group of 9 healthy male human volunteers against the reference substance. The dosage regime was 500 mg every 8 hours over a 24 hour period. Plasma samples were taken in each case at intervals up to and including 24 hours post initial dosing and the samples were assayed for DHEA (base and sulphate) levels. DHEA sulphate levels were measured because a substantial portion of the DHEA is converted to the sulphate form in vivo. For the reference substance, the area under the curve (AUC) value are arbitrarily denoted as 100%. The AUC value was then compared and assigned an absolute bioavailability value (%) using the 100% as baseline.
structure (smiles),measurement,setting,value
"C[C@]12CC[C@H](O)CC1=CC[C@@H]1[C@@H]2CC[C@]2(C)C(=O)CC[C@@H]12 [REFERENCE, dehydroepiandrosterone]",Mean Urinary Recoveries for DHEA Base,[1]; Day 0,22.55 ± 8.50 mg/24 h.
same,Mean Urinary Recoveries for DHEA Base,[1]; Day 1,460.67 ± 179.87 mg/24 h.
same,Mean Urinary Recoveries for DHEA Base,[1]; Day 2,799.55 ± 191.90 mg/24 h.
same,Mean Urinary Recoveries for DHEA Base,[1]; Day 3,745.88 ± 179.92 mg/24 h.
same,Mean Urinary Recoveries for DHEA Base,[1]; Day 4,694.33 ± 162.07 mg/24 h.
same,Mean Urinary Recoveries for DHEA Base,[1]; Day 5,800.22 ± 156.19 mg/24 h.
same,bioavailability,[2],100%
